Measurements reported in ChEMBL document CHEMBL3046888, “Antiviral and Antifungal Activities of Some Naphthoquinones Isolated from the Roots of Lithospermum erythrorhizon” (J Pestic Sci, 1998).
Active and inactive are the calls of the source. No cut-off for these calls is given here.

How the values were obtained:
Tobacco mosaic virus [1] = test: Antiviral activity against Tobacco mosaic virus (TMV) in compound treated tobacco leaf assessed as growth inhibition at 5 mM at 25 degC for 3 days (16 hr in light) by half-leaf method; format: functional
Tobacco mosaic virus [2] = test: Antiviral activity against Tobacco mosaic virus (TMV) in compound treated tobacco leaf assessed as growth inhibition at 25 mM at 25 degC for 3 days (16 hr in light) by half-leaf method; format: functional; parameters: dose or concentration left out as unconfirmed
Cladosporium herbarum [3] = test: Antifungal activity against Cladosporium herbarum assessed as inhibition at 50 nmol in 8 mm disk; format: functional
Cladosporium herbarum [4] = test: Antifungal activity against Cladosporium herbarum assessed as inhibition at 1250 nmol in 8 mm disk; format: functional
Cladosporium herbarum [5] = test: Antifungal activity against Cladosporium herbarum assessed as inhibition at 10 nmol in 8 mm disk; format: functional
Cladosporium herbarum [6] = test: Antifungal activity against Cladosporium herbarum assessed as inhibition at 250 nmol in 8 mm disk; format: functional
Nicotiana tabacum = test: Phytotoxicity against Nicotiana tabacum (tobacco) plant at 25 mM; format: organism-based; conditions: in vivo, 25000 µM

Structure (SMILES): CCC(C)C(=O)O[C@H](CC=C(C)C)C1=CC(=O)c2c(O)ccc(O)c2C1=O (some centres undefined)
- inhibition (Tobacco mosaic virus [1]): inactive
- inhibition (Tobacco mosaic virus [2]): 86.1%

Structure (SMILES): CC(C)=CC[C@@H](OC(=O)CC(C)C)C1=CC(=O)c2c(O)ccc(O)c2C1=O
- inhibition at 5000 µM (Tobacco mosaic virus [1]): 46%
- inhibition (Tobacco mosaic virus [2]): 86.1%

Structure (SMILES): CCC(=O)O[C@H](CC=C(C)C)C1=CC(=O)c2c(O)ccc(O)c2C1=O
- diameter of the inhibition zone (DIZ) (Cladosporium herbarum [3]): 11.3 mm
- diameter of the inhibition zone (DIZ) (Cladosporium herbarum [4]): 15.1 mm
- inhibition at 5000 µM (Tobacco mosaic virus [1]): 86.1%
- inhibition (Tobacco mosaic virus [2]): 99.9%
- diameter of the inhibition zone (DIZ) (Cladosporium herbarum [5]): 9.1 mm
- diameter of the inhibition zone (DIZ) (Cladosporium herbarum [6]): 15.6 mm

Structure (SMILES): CC(=O)O[C@H](CC=C(C)C)C1=CC(=O)c2c(O)ccc(O)c2C1=O [ACETYLSHIKONIN]
- diameter of the inhibition zone (DIZ) (Cladosporium herbarum [3]): 13 mm
- diameter of the inhibition zone (DIZ) (Cladosporium herbarum [4]): 13.4 mm
- inhibition at 5000 µM (Tobacco mosaic virus [1]): 73.2%
- inhibition (Tobacco mosaic virus [2]): 78.7%
- diameter of the inhibition zone (DIZ) (Cladosporium herbarum [5]): 10.1 mm
- diameter of the inhibition zone (DIZ) (Cladosporium herbarum [6]): 13.3 mm

Structure (SMILES): CC(C)=CC[C@@H](OC(=O)CC(C)(C)O)C1=CC(=O)c2c(O)ccc(O)c2C1=O [BETA-HYDROXYISOVALERYLSHIKONIN]
- diameter of the inhibition zone (DIZ) (Cladosporium herbarum [3]): 13.8 mm
- diameter of the inhibition zone (DIZ) (Cladosporium herbarum [4]): 17.6 mm
- inhibition at 5000 µM (Tobacco mosaic virus [1]): 44%
- Activity (Nicotiana tabacum): Toxic
- diameter of the inhibition zone (DIZ) (Cladosporium herbarum [5]): 9.1 mm
- diameter of the inhibition zone (DIZ) (Cladosporium herbarum [6]): 16 mm

Structure (SMILES): CC(C)=CCCC1=CC(=O)c2c(O)ccc(O)c2C1=O [DEOXYSHIKONIN]
- inhibition at 5000 µM (Tobacco mosaic virus [1]): 66.4%
- inhibition (Tobacco mosaic virus [2]): 87.3%

Structure (SMILES): CC(C)=CC[C@@H](OC(=O)C=C(C)C)C1=CC(=O)c2c(O)ccc(O)c2C1=O [DIMETHYLACRYLSHIKONIN]
- inhibition at 5000 µM (Tobacco mosaic virus [1]): 26%
- inhibition (Tobacco mosaic virus [2]): 70.2%

Structure (SMILES): CC(C)=CC[C@@H](OC(=O)C(C)C)C1=CC(=O)c2c(O)ccc(O)c2C1=O [ISOBUTYLSHIKONIN]
- inhibition at 5000 µM (Tobacco mosaic virus [1]): 49.5%
- inhibition (Tobacco mosaic virus [2]): 75.5%

Structure (SMILES): CC(C)=CC[C@@H](O)C1=CC(=O)c2c(O)ccc(O)c2C1=O [SHIKONIN]
- diameter of the inhibition zone (DIZ) (Cladosporium herbarum [3]): 13.4 mm
- diameter of the inhibition zone (DIZ) (Cladosporium herbarum [4]): 15.9 mm
- inhibition (Tobacco mosaic virus [1]): inactive
- Activity (Nicotiana tabacum): Toxic
- diameter of the inhibition zone (DIZ) (Cladosporium herbarum [5]): 9.9 mm
- diameter of the inhibition zone (DIZ) (Cladosporium herbarum [6]): 14.1 mm
